Assay results reported in US20240099298A1, “BIOINSECTICIDAL COMPOSITIONS CONTAINING MONOTERPENES AND METHODS OF USE THEREOF” (priority 2017, published 2024).
In brackets after ≈: the same amount, converted by molar mass. Where two headings read alike, the source gives them in different places. Marks after values point to notes of the source that are not given here.

Key:
[1] = test system: T. castaneum (red flour beetle); test: Median lethal time (LT50) test, red flour beetle; assay type: in vivo, Tribolium castaneum
Excerpt: (§1) All treatments and controls were in triplicate.
(§2) Toxicity of Monoterpenes as Fumigants. […] Therefore, to determine how fast the monoterpenes act as fumigants, it was necessary to determine their LT50 values for the target organisms.

[2] = test system: H. picinus (Nitidulid beetle); test: Median lethal time (LT50) test, Nitidulid beetle; assay type: in vivo, Haptoncus picinus
Excerpt: as §1, §2

[3] = test system: A. japonicus (parasitic wasp); test: Median lethal time (LT50) test, parasitic wasp (natural enemy); settings: non-target parasitic wasp
Protocol: (§3) Insect Egg Parasitic Wasp (Natural Enemy). […] Both species were purchased from a commercial source. One- to two-day-old adults (after eclosion) were used for fumigation tests.
Median Lethal Time (LT50) and Median Knockdown Concentration (KC50) Tests. Five species of adult insects or natural enemies were tested for LT50 values including melon fly (B. cucuribitae), red flour beetle (T. castaneum), Nitidulidae beetle (H. picinus), parasitic wasp (A. japonicus) and housefly (M. domestica). For each treatment and control, 20 insects at the developmental stages described above were placed individually without food in a 1-L wide-mouth glass bottle (height 19.5 cm, bottom diameter 10.5 cm, mouth i.d. 5.5 cm) containing pieces of tissue paper. […] Five different concentrations of the test chemicals were placed on pieces of cellulose-based qualitative filter paper. Each of the filter papers was placed in a bottle to have 5 appropriate concentrations in serial dilutions. DDVP was the positive control, and no chemical treatments were the negative control. All treatments and controls were in triplicate. Mortality was observed periodically in a 10-30 minute interval for 2 days or until all insects died. The death was defined as no movement when the insects were touched.

[4] = test system: Megalurothrips usitatus (flower Thrips); settings: for activity against flower Thrips in preliminary screening: adult M. usitatus, 24 hours of fumigation in 1-L flasks
[5] = test system: B. cucuribitae (melon fly); test: Median lethal time (LT50) test, melon fly; assay type: in vivo, Bactrocera cucuribitae
Excerpt: as §1, §2

M. domestica (housefly) = test: Median lethal time (LT50) test, housefly; assay type: in vivo, Musca domestica
Excerpt: as §1, §2

flower Thrips = test: Field test in cowpea fields, thrips; assay type: in vivo
Protocol: (§4) Field Tests. […] Therefore, it was determined whether this compound could control Thrips in the field. Linalool was in 20-, 10- and 5.0-fold dilutions with edible peanut oil. The positive control was spinetoram (Dow AgroSciences) in 3000-fold dilution.
(§5) The field experimental plots were 15 m^2 in size, in triplicate. A designated sprayer (Dia spray No. 3530, Japan Furlpla Co., Japan) was used to spray the solvent only negative control in this experiment. Grub density was calculated at every plot prior to application. During the experiments, the field was also infested with leafhoppers, so that the control efficacy of leafhoppers was also assessed. The number of adult Thrips and leafhoppers was assessed in the treatment and control areas at 1, 3, 5, 7, 14 and 21 days after application. The decline of the adult Thrips and leafhoppers was calculated to assess the control efficacy of linalool.
Field Applications. To assess the use of monoterpenes in the field, linalool was tested for control of flower Thrips in cowpea fields. […] At 1 and 3 days after treatment, control efficacy respectively reached 98% and 100% for the 10-fold dilution (Table 15). By comparison, the positive control, a 3000-fold dilution of spinetoram, reached 70% and 94% at 1 and 3 days after treatment, respectively (Table 17).

[6] = test system: leafhoppers, Cicadella viridi linne; test: Field test, leafhoppers; assay type: in vivo; settings: Leafhopper
Protocol: as §4, §5
A 10-fold dilution of linalool was also the most efficacious application, compared to 5- and 20-fold dilutions, in controlling leafhoppers, Cicadella viridi linne (Hemiptera: Cicadellidae). At 7 and 14 days after treatment, the control efficacy of the 10-fold dilution of linalool reached 96% and 98%, respectively.

[7] = cited from earlier work
Aedes aegypti (mosquito) = test: Median knockdown concentration (KC50) test, mosquito; assay type: in vivo; settings: 30 Minutes
Excerpt: as §1
(§6) Knockdown Activity of Monoterpenes.

[8] = test system: Megalurothrips usitatus (Bagrall) (thrips); test: Median lethal concentration fumigation test, thrips; settings: adult thrips, exposed one hour, mortality observed in 24 hours
Excerpt: (§7) Median Lethal Concentration Tests. […] The species tested included Thrips (M. usitatus), spider mite (T. cinnabarinus), melon fly (B. cucuribitae), cockroach (B. lateralis), housefly (M. domestica), mosquito (A. aegypti), parasitic wasp (T. chilonis) and fruit fly (Drosophila melanogaster). After being exposed to the test chemicals for one hour, adult Thrips, spider mites, and roaches were transferred to another flask. In addition to fresh water, adult Thrips, spider mites, and roaches were then respectively fed with cowpea, fresh blade of eggplant, and peanut oil via filter. […] Mortality of melon fly was observed after three hours of exposure.

[9] = test system: Musca domestica (housefly); test: Median knockdown concentration (KC50) test, housefly; assay type: in vivo; settings: Musca domestica
Excerpt: as §1, §6

[10] = test system: Blatta lateralis (Walker) (cockroach); settings: cockroach second instar nymphs, exposed one hour
Excerpt: as §7

[11] = test system: Aedes aegypti (Linnaeus) (mosquito); settings: adult mosquito, exposed 30 minutes, mortality in 24 hours
Excerpt: as §7

[12] = test system: Musca domestica (Linnaeus) (housefly); settings: adult housefly, exposed one hour, mortality in 24 hours
Excerpt: as §7

[13] = test system: Bactrocera cucuribitae (Coquillett) (melon fly); settings: melon fly
Excerpt: as §7

[14] = test system: Tetranychus cinnabarinus (Boisduval) (spider mites); settings: spider mites, exposed one hour
Excerpt: as §7

[15] = test system: Drosophila melanogaster (fruit fly); test: Median lethal concentration fumigation test, fruit fly; assay type: in vivo; settings: mortality after 280 minutes
[16] = test system: T. chilonis (parasitic wasp); settings: non-target parasitic wasp, mortality after 15 minutes of exposure
Excerpt: as §3, §7

adult T. palmi = settings: cited from earlier work

CC(C)=O [Acetone]
LT50 (fiducial limits) [1]: >48^a ^ hour
LT50 (fiducial limits) [2]: >48^a ^ hour
LT50 (fiducial limits) against A. japonicus [3]: >48^a hour
mortality ([4]; in vivo): No mortality
LT50 (fiducial limits) [5]: >48^a ^ hour
LT50 (fiducial limits) (M. domestica (housefly)): >48^a ^ hour

Spinetoram
Control Efficacy (flower Thrips; 1 DAT): 70%
Control Efficacy (flower Thrips; 3 DAT): 94%
Control Efficacy (flower Thrips; 5 DAT): 37%
Control Efficacy (flower Thrips; 7 DAT): 33%
Control Efficacy (flower Thrips; 14 DAT): 62%
Control Efficacy (flower Thrips; 21 DAT): 0%
Control Efficacy ([6]; 1 DAT): 68%
Control Efficacy ([6]; 3 DAT): 87%
Control Efficacy ([6]; 5 DAT): 36%
Control Efficacy ([6]; 7 DAT): 49%
Control Efficacy ([6]; 14 DAT): 66%
Control Efficacy ([6]; 21 DAT): 25%

C=C(C)[C@H]1CC=C(C)CC1 [(+)-Limonene]
Vp (Pa)/T (° C.) ([7]; T 25 °C): 263.97/25 Pa
activity against flower Thrips in preliminary screening [4]: not active

COP(=O)(OC)OC=C(Cl)Cl [DDVP 80%, 2,2-Dichlorovinyl dimethyl phosphate, reference compound]
LT50 (fiducial limits) [1]: 2.70 h
KC50 (fiducial limits) (Aedes aegypti (mosquito)): >0.081 µg/mL
LT50 (fiducial limits) against A. japonicus [3]: 0.41 (0.07-0.49) hour
LC90 (fiducial limits) [8]: 1850 ng/mL
LT50 (fiducial limits) [5]: 0.89 h
KC50 (fiducial limits) ([9]; 20 Minutes): >2.7 µg/mL
KC50 (fiducial limits) ([9]; 30 Minutes): >2.7 µg/mL
LC90 (fiducial limits) [10]: 9510 ng/mL
LC90 (fiducial limits) [11]: 2.8 ng/mL
LC90 (fiducial limits) [12]: 530 ng/mL
LC90 (fiducial limits) [13]: 1.4 ng/mL
LC90 (fiducial limits) [14]: 800 ng/mL
LC90 (fiducial limits) [15]: 0.002 ng/mL
LC90 (fiducial limits) against T. chilonis [16]: >3750 ng/mL

C=C[C@](C)(O)CCC=C(C)C [(−)-Linalool]
Vp (Pa)/T (° C.) ([7]; T 23.5 °C): 21.20/23.5 Pa

CC12CCC(CC1)C(C)(C)O2 [1,8-Cineole]
LC50, fumigation toxicity (adult T. palmi): 16700 ng/mL (≈ 108 µM)
Vp (Pa)/T (° C.) ([7]; T 25 °C): 253.31/25 Pa

C=C(C)[C@@H]1CC=C(C)CC1 [(−)-Limonene]
Vp (Pa)/T (° C.) ([7]; T 25 °C): 206.65/25 Pa
activity against flower Thrips in preliminary screening [4]: not active
